Assay results: US20100047227A1, “NOVEL ANTICANCER CATHEPSIN FORMULATIONS AND ANTICANCER AGENT FOR USE IN COMBINED ANTICANCER THERAPY” (priority 2006, published 2010)

Columns and labels:
[1] = system: human prostate epithelium (PrE) cells; assay: cell survival rate of normal human prostate epithelial cells; type: cell-based; conditions: 100 μg/ml, 37° C., pH 7.4, 20 hours
Method: The survival rate of cells was measured by Cell Counting Kit-8 in accordance with a manufacturer's manual. The method will be described briefly as follows. A 96-well (each 100 μl) plate was inoculated with cells (1×10^4 cells) and incubated for 24 hours, and the cells were incubated in a non-serum culture medium Opti-MEM together with a given concentration of each cathepsin purified from rat stomach (References #27 and #60-#62). Thereafter, the kit reagent (10 μl) was added to each well and the wells were incubated for another 1 hour. After incubation, each well was measured at the absorbance of 450 nm with a microplate reader.
In this assay, the cells to be tested were incubated to a ˜80% confluent state and then together with cathepsin E (100 μg/ml) or physiological saline at 37° C. and pH 7.4 for 20 hours, followed by measurements for the cell survival rate by a colorimetric assay. The cell survival rate is represented as a percentage of a corresponding value to the cells treated with physiological saline, and the data is represented as an average value±SD from the data obtained by four separate experiments. […] As an alternative method, a culture medium of each cell line was immunoblot-analyzed using an anti-OPG antibody. […] Thereafter, the immunoblot was analyzed for its concentration in order to determine a quantity of a soluble TRAIL trimer. […]

soluble TRAIL trimers = assay: immunoblot densitometry of soluble TRAIL trimer in culture supernatant; type: cell-based, human; conditions: PrE and prostate cancer cell lines treated with cathepsin E
Method: The SDS-PAGE and immunoblot analyses were carried out according to prior art literature (Reference #63). The protein fractioned by SDS-PAGE was migrated on nitrocellulose membrane and was blocked with 5% non-fat dried milk. Then, the nitrocellulose membrane was incubated overnight at 4° C. with a primary antibody, i.e., anti-TRAIL antibody (1/300-fold dilution), anti-TNF-α antibody (1/200-fold dilution), anti-FasL antibody (1/500-fold dilution), anti-DR4 antibody (1/500-fold dilution), anti-DR5 antibody (1/100-fold dilution), anti-DcR1 antibody (1/500-fold dilution), anti-DcR2 antibody (1/500-fold dilution), anti-osteoprotegrin (1/150-fold dilution) or anti-β-actin antibody (1/500-fold dilution). […] The resulting membrane was then washed several times and an immunocomplex was detected with a chemiluminescent reagent. The measurement for density was measured with LAS 1000 analyzer.
In this assay, the cells to be tested were incubated to a ˜80% confluent state and then together with cathepsin E (100 μg/ml) or physiological saline at 37° C. and pH 7.4 for 20 hours, followed by measurements for the cell survival rate by a colorimetric assay. […] As an alternative method, a culture medium of each cell line was immunoblot-analyzed using an anti-OPG antibody. […] Thereafter, the immunoblot was analyzed for its concentration in order to determine a quantity of a soluble TRAIL trimer. […]

[2] = system: ALVA-41 cells tumor in nude mice; assay: tumor growth in nude mice transplanted subcutaneously with ALVA-41 cells; type: in vivo
Method: In order to study the growth of primary tumor, 1 ml of PBS solution containing ALVA-41 cells (5×10^6 cells) was injected subcutaneously into the right flank of a male nude mouse. Separately, a solution of mouse melanoma B16 cells (1×10^6 cells) was likely injected subcutaneously into the right flank of an inbred wild-type (WT) mouse, CatE^−/− mouse and CatE^Tg mouse. The size of the tumor was measured with a caliper, and the tumor volume was calibrated by ab^2/2 (where a and b represent a maximum dimension of the central section and a minimum dimension of the central section, respectively). As the size of the heterograft of the ALVA-41 cell reached approximately 100 mm^3 (approximately at day 12 after injection), animals were divided into two groups of each 5 animals. To the two animal groups, respectively, purified cathepsin E (200 μg per kg of body weight per day) and physiological saline were injected into the central portion of the tumor for 16 days. For a measurement for the tumor weight and an immunohistochemical study, […] reached approximately 400 mm^3. For a study on metastasis, melanoma B16 cells (2×10^5 cells in 50 μl of PBS solution) was injected into a tail vein of a Wt mouse, CatE^−/− mouse and CatE^Tg. The mice were then anesthetized at day 22 after injection and killed with a lethal amount of diethylether, followed by removing the lungs and counting the number of black metastasis colonies.
As the tumor volume reached ˜[…] after subcutaneous injection, cathepsin E (200 μg/kg/day) or physiological saline was subcutaneously injected into the central portion of the tumor for 16 days. […] Data are represented as an average value±SD of the value obtained from three mice per each group. […] The TUNEL assay was carried out by reacting with diaminobenzidine and counter-staining tissue slices with 1% methyl green. Data represent the result obtained from five mice per group. In the figure, the lower image is an expanded version of the upper image. In the figure, a bar scale represents 50 μm.

cathepsin E
influence upon survival and morphology of normal PrE cells [1]: little exerted influences upon the survival and morphology | order of increasing amounts of soluble TRAIL trimers secreted by treatment (soluble TRAIL trimers): PrE<PC-3<PPC-1<ALVA-101≦DU145<ALVA-41 | growth of tumor compared to saline control ([2]; 200 μg/kg daily for 16 days into central portion of tumor, start at approx. 100 mm^3): grown in a remarkably controlled manner | weight of the tumor versus control group ([2]; 400 μg/kg once per day for 10 days, start at approx. 400 mm^3): significantly lower | effect of suppressing the tumor ([2]; daily dose of 30 μg/kg or lower): little recognized | effect upon regression of tumor ([2]; daily dose of 50 μg/kg): rather decreased | toxicity toward normal tissues and cells ([2]; nude mice administered cathepsin E): no effect upon toxicity toward normal tissues and cells can be recognized at all | apoptosis cells in tumor by TUNEL stain ([2]; tumors after 10 days administration): a number of the apoptosis cells were observed
